Assays:
[1] = biological target: T1, complement factor Clq (Homo sapiens, UniProt P02745+P02746+P02747); assay: Clq binding ELISA; conditions: antibody coated 25 to 0.02 μg/ml
T1 construct: purchased Sigma C1740-1mg
Procedure: In additional studies, the ability of the unconjugated anti-FGFR2 antibodies to bind the complement factor Clq was evaluated. The binding of the complement factor Clq is the initial step leading to complement dependent cytotoxicity (CDC) and cell lysis in vivo. In these studies the surface of the wells of 96-well microtiterplates (Nunc, Maxisorp, catalog # 439454) were coated with serial dilutions of the antibodies 12433, 12425, N297A_12425 and 10164 over night at 4° C. in the dark (all in a concentration range from 25 to 0.02 μg/ml). The commercially available antibody, Rituximab served as a positive control. In order to monitor the amount of bound antibody analyte on the microtiterplate, this procedure was performed twice per plate utilizing the second dilution (in triplicate) for determining the coating efficacy of the analyte to the plate. Clq binding was quantified by adding a constant concentration of Clq (Sigma; Complement component Clq catalog # C1740-1mg) and detected using a polyclonal goat-anti-human Clq antibody conjugated to Horse Radish Peroxidase HRP (AbD Serotec; Sheep Anti-Human Clq:HRP; Catalogue number 2221-5004P). The control of the coating efficiency was determined in the second dilution series with a peroxidase-conjugated goat-anti-human IgG antibody fragment (Jackson ImmunoResearch; catalog # 109-036-003; AffiniPure F(ab′2) fragment Goat Anti-Human IgG (H+L)). […]

[2] = test system: CHGA119 patient-derived primary gastric tumor xenograft model; assay: Antitumor activity and body weight in CHGA119 patient-derived xenograft
Text: In these studies, CHGA119 tumor fragments in size of 2mm ×2mm×2mm were implanted subcutaneously (s.c.) into female nu/nu athymic mice. […] Tumors were calipered twice a week.

[3] = CHGA119-tumor bearing mice, ADCs 10 mg/kg i.v. q2wk, BGJ398 10 mg/kg p.o. qd

T1 sequence (P02745 23-245): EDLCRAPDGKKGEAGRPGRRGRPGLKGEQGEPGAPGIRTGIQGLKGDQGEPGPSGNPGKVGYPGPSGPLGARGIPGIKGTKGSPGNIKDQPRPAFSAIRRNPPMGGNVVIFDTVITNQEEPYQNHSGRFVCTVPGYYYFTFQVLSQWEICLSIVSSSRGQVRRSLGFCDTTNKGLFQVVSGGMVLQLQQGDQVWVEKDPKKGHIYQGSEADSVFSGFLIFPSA
T1 sequence (P02746 28-253): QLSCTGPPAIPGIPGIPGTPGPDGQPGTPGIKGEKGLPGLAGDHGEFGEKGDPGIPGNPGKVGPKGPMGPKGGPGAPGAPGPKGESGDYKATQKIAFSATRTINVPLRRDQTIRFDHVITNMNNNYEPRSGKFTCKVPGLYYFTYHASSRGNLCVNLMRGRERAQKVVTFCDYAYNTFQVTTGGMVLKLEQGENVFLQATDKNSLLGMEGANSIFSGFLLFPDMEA
T1 sequence (P02747 29-245): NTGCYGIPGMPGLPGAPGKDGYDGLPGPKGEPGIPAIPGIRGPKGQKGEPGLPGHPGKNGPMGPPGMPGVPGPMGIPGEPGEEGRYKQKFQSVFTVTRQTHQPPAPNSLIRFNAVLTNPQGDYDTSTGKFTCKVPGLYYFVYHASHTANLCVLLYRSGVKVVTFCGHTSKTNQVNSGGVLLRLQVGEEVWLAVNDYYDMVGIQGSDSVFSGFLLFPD

Row | Compound | Clq binding potency (EC50) [1] | Host response: % body weight change (mean ± SEM) [2, 3] | Host response: Mean body weight change (g ± SEM) [2, 3] | Host response: Survival (survivors/total) [2, 3] | T/C ([2]; single agent, 10 mg/kg, after 5 weeks of treatment)
1 | Rituximab: commercially available antibody, positive control for Clq binding | about the same |  |  |  | 
2 | CCN1CCN(c2ccc(Nc3cc(N(C)C(=O)Nc4c(Cl)c(OC)cc(OC)c4Cl)ncn3)cc2)CC1 [BGJ398, 3-(2,6-Dichloro, 3,5-dimethoxy-phenyl)-1-{6-[4-(4-ethyl-piperazin-1-yl)-phenylamino]-pyrimidin-4-yl}-1-methyl-urea] |  | −3.7 ± 3% | -0.8 ± 0.7 g | 8/8 | 33%

From patent US20190345250A1, “ANTIBODY DRUG CONJUGATES” (NOVARTIS AG, priority 2013, published 2019)
